Measurements reported in patent US20010047099A1, “4-aminopicolinates and their use as herbicides” (priority 2000, published 2001).
Like-named read-outs stand apart in the source and are kept apart here.

Experiments:
[1] = system: Rox orange sorghum (sorghum bicolor); assay: Postemergence herbicidal activity; type: in vivo; settings: post-emergence, 336 h
How it was run: (§1)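 Foliar spray at 1st–2nd true leaf; 1 ppm ≈ 1 g/Ha. Carrier: acetone/water/IPA/DMSO plus crop oil concentrate and Triton X-155. Greenhouse, sub-irrigated. Visual rating vs untreated at 2 wk, 0 = no injury, 100 = complete kill.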

[2] = system: barnyardgrass (Echinochloa crus-galli); assay: Postemergence herbicidal activity; type: in vivo; settings: for inhibition at 125 ppm: Echinochloa crus-galli, post-emergence, 336 h, Table 2, rate 125 ppm, after 2 weeks, read-out: POSTMERGENCE HERBICIDAL ACTIVITY % CONTROL ECHCG; for post emergent evaluation - % control ECHCG: Table 3, weeds in rice, rate 250 ppm
How it was run: as §1

[3] = system: blackgrass (Alopecurus myosuroides); assay: Postemergence herbicidal activity; type: in vivo; settings: post-emergence, 336 h
How it was run: as §1

[4] = system: lambsquarters (Chenopodium album); assay: Postemergence herbicidal activity; type: in vivo; settings: for inhibition at 125 ppm: Chenopodium album, post-emergence, 336 h, Table 2, rate 125 ppm, after 2 weeks, read-out: POSTMERGENCE HERBICIDAL ACTIVITY % CONTROL CHEAL
How it was run: as §1

[5] = system: crabgrass (Digitaria sanguinalis); assay: Postemergence herbicidal activity; type: in vivo; settings: post-emergence, 336 h
How it was run: as §1

[6] = system: velvetleaf (Abutillon theophrasti); assay: Postemergence herbicidal activity; type: in vivo; settings: Abutilon theophrasti, post-emergence, 336 h, Table 2, rate 125 ppm, after 2 weeks, read-out: POSTMERGENCE HERBICIDAL ACTIVITY % CONTROL ABUTH
How it was run: as §1

[7] = system: barnyardgrass (Echinochloa crus-galli); assay: Preemergence herbicidal activity; type: in vivo; settings: pre-emergence, 504 h
How it was run: (§2)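 Seeds were sown in a 70:30 loam/sand mix (pH about 8.1, about 1.5 percent organic matter), and the soil surface was sprayed with compound in aqueous acetone/DMSO containing 0.1 percent Tween 155. Pots were kept in a greenhouse at 23-29° C day, 15 hr photoperiod, top-irrigated; injury was scored visually after 3 weeks.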

[8] = system: blackgrass (Alopecurus myosuroides); assay: Preemergence herbicidal activity; type: in vivo; settings: pre-emergence, 504 h
How it was run: as §2

[9] = system: crabgrass (Digitaria sanguinalis); assay: Preemergence herbicidal activity; type: in vivo; settings: pre-emergence, 504 h
How it was run: as §2

[10] = Table 2, rate 125 ppm, after 2 weeks, read-out: POSTMERGENCE HERBICIDAL ACTIVITY % CONTROL SORBI
[11] = Table 2, rate 125 ppm, after 2 weeks, read-out: POSTMERGENCE HERBICIDAL ACTIVITY % CONTROL ALOMY
[12] = Table 2, rate 125 ppm, after 2 weeks, read-out: POSTMERGENCE HERBICIDAL ACTIVITY % CONTROL DIGSA
[13] = Table 7, rate 35 g/Ha, after 3 weeks, read-out: PREEMERGENCE HERBICIDAL ACTIVITY % CONTROL ECHCG
[14] = Table 7, rate 35 g/Ha, after 3 weeks, read-out: PREEMERGENCE HERBICIDAL ACTIVITY % CONTROL ALOMY
[15] = Table 7, rate 35 g/Ha, after 3 weeks, read-out: PREEMERGENCE HERBICIDAL ACTIVITY % CONTROL DIGSA

SMILES | melting point | post emergent evaluation - % control ECHCG [2] | inhibition at 125 ppm [1, 10] | inhibition at 125 ppm [2] | inhibition at 125 ppm [3, 11] | inhibition at 125 ppm [4] | inhibition at 125 ppm [5, 12] | inhibition at 125 ppm [6] | inhibition at 35 g/ha [7, 13] | inhibition at 35 g/ha [8, 14] | inhibition at 35 g/ha [9, 15] | further results
Nc1cc(Cl)nc(C(=O)O)c1Cl [Compound 1, 4-Amino-3,6-dichloropyridine-2-carboxylic acid] |  | 75% |  |  |  |  |  |  |  |  |  | inhibition at 125 ppm ([1]; read-out: PO[…] % CONTROL SORBI, Table 2, rate 125 ppm, after 2 weeks, read-out: POSTMERGENCE HERBICIDAL ACTIVITY % CONTROL SORBI): 50%; inhibition at 125 ppm ([2]; read-out: PO[…] % CONTROL ECHCG): 45%; inhibition at 125 ppm ([3]; read-out: PO[…] % CONTROL ALOMY, Table 2, rate 125 ppm, after 2 weeks, read-out: POSTMERGENCE HERBICIDAL ACTIVITY % CONTROL ALOMY): 50%; inhibition at 125 ppm ([4]; read-out: PO[…] % CONTROL CHEAL): 100%; inhibition at 125 ppm ([5]; read-out: PO[…] % CONTROL DIGSA, Table 2, rate 125 ppm, after 2 weeks, read-out: POSTMERGENCE HERBICIDAL ACTIVITY % CONTROL DIGSA): 60%; inhibition at 125 ppm ([6]; read-out: PO[…] % CONTROL ABUTH): 70%; inhibition at 35 g/ha ([7]; read-out: PR[…] % CONTROL ECHCG, Table 7, rate 35 g/Ha, after 3 weeks): 17%; inhibition at 35 g/ha ([8]; read-out: PR[…] % CONTROL ALOMY, Table 7, rate 35 g/Ha, after 3 weeks): 36%; inhibition at 35 g/ha ([9]; read-out: PR[…] % CONTROL DIGSA, Table 7, rate 35 g/Ha, after 3 weeks): 20%
Nc1c(F)c(Cl)nc(C(=O)O)c1Cl [Compound 19, 4-Amino-3,6-dichloro-5-fluoropyridine-2-carboxylic acid] | 214 °C (dec.) |  | 10% | 10% | 20% | 95% | 30% | 50% |  |  |  | 
COC(=O)c1nc(Cl)cc(N)c1Cl [Compound 3, methyl 4-amino-3,6-dichloropyridine-2-carboxylate] | 134 to 135 °C |  |  |  |  |  |  |  | 20% |  | 40% | 
CCOC(=O)c1nc(Cl)cc(N)c1Cl [Compound 4, ethyl 4-amino-3,6-dichloropyridine-2-carboxylate] | 98 to 99 °C |  | 40% | 50% | 40% | 100% | 70% | 70% |  |  |  | 

The next lines start with results.

melting point | SMILES | post emergent evaluation - % control ECHCG [2] | inhibition at 125 ppm [1, 10] | inhibition at 125 ppm [2] | inhibition at 125 ppm [3, 11] | inhibition at 125 ppm [4] | inhibition at 125 ppm [5, 12] | inhibition at 125 ppm [6] | inhibition at 35 g/ha [7, 13] | inhibition at 35 g/ha [8, 14] | inhibition at 35 g/ha [9, 15] | further results
182 to 183 °C | Nc1cc(Br)nc(C(=O)O)c1Cl [Compound 14, 4-Amino-6-bromo-3-chloropyridine-2-carboxylic acid] | 65% | 60% | 65% | 50% | 95% | 65% | 85% | 40% | 60% | 80% | Post-emergent Evaluation - % control CHEAL ([4]; Table 5, rate 250 ppm): 70%
154 to 156 °C | COc1c(C(=O)O)nc(Br)c(Cl)c1N [Compound 42, 4-Amino-6-bromo-5-chloro-3-methoxypyridine-2-carboxylic acid] |  |  |  |  |  |  |  | 30% | 30% | 30% | 
